US9120749B2, “Quinoline derivatives and MELK inhibitors containing the same” (ONCOTHERAPY SCIENCE, INC., priority 2010, dated 2015)
Structures can show the parent of a compound that is named as a salt. Where two headings read alike, the source gives them in different places.

Assays:
HT-1197 cells = experiment: Cell-based assay: anti-proliferative activity, Cell Counting Kit-8, 72 hours (HT-1197, negative control without MELK expression); conditions: 72 hours
Summary of the method: (§1)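 Anti-MELK western blot on crude lysates → MELK status per line. Cells plated 96-well, compound exposure, CCK-8 readout at 72 h; IC50 calculated.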

DU4475 cells [1] = experiment: Cell-based assay: anti-proliferative activity, Cell Counting Kit-8, 72 hours (DU4475)
MELK = MELK (Homo sapiens, UniProt Q14680); experiment: Kinase assay: MELK activity, phosphorylation of FITC-labeled histone H3 peptide measured by IMAP fluorescence polarization; type: biochemical; conditions: read-out: IC50 (μM) (kinase assay)
Summary of the method: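 Compounds, serially diluted from 12.5 mM DMSO stocks to 1% final DMSO, were tested with FITC-labeled histone H3 peptide as substrate. The reaction was stopped with progressive binding solution. Fluorescence polarization was read after 0.5 hour at room temperature.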

T47D cells = experiment: Cell-based assay: anti-proliferative activity, Cell Counting Kit-8, 72 hours (T47D)
Summary of the method: as §1

22Rv1 cells [2] = experiment: Cell-based assay: anti-proliferative activity, Cell Counting Kit-8, 72 hours (22Rv1); conditions: Homo sapiens
A549 cells = experiment: Cell-based assay: anti-proliferative activity, Cell Counting Kit-8, 72 hours (A549); conditions: 72 hours
Summary of the method: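 Cell Counting Kit-8 read-out of A549 growth after 72 hours of inhibitor exposure, cells plated in 96-well format. Values reported as IC50.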

22Rv1 cells [3] = experiment: Cell-based assay: anti-proliferative activity, Cell Counting Kit-8, 72 hours (22Rv1); conditions: Homo sapiens; remark: listed apart in the source
DU4475 cells [4] = experiment: Cell-based assay: anti-proliferative activity, Cell Counting Kit-8, 72 hours (DU4475); remark: listed apart in the source
22Rv1 = experiment: Cell-based assay: anti-proliferative activity, Cell Counting Kit-8, 72 hours (22Rv1); conditions: Homo sapiens; 22Rv1 cells
Protocol: Active candidate inhibitors against MELK were evaluated for their target-specific cytotoxicity using T47D, A549, BT-549, and HT-1197 cells was used for negative control. 100 micro-L of cell suspension was seeded onto 96-well microtiter plate (ViewPlate-96FTC, PerkinElmer). The initial cell concentration of T47D, A549, BT-549, and HT-1197 were 3,000 cells/well, 2,000 cells/well and 2,500 cells/well, respectively. Cellular growth was determined using Cell Counting Kit-8 (DOJINDO) at 72 hours after the exposure of the candidate inhibitors. […] Accurate IC50 values were calculated as described previously.

DU4475 = experiment: Cell-based assay: anti-proliferative activity, Cell Counting Kit-8, 72 hours (DU4475); conditions: DU4475 cells
[5] = HT1197 cells (negative control, no MELK expression)
[6] = HT1197 cells (negative control, no MELK expression), hydrochloride
[7] = HT1197 cells (negative control, no MELK expression), dihydrochloride
[8] = HT1197 cells (negative control), hydrochloride
[9] = Homo sapiens, HT1197, 72 h, HT1197 cells (negative control)

Chain of MELK (Q14680 whole entry, looked up): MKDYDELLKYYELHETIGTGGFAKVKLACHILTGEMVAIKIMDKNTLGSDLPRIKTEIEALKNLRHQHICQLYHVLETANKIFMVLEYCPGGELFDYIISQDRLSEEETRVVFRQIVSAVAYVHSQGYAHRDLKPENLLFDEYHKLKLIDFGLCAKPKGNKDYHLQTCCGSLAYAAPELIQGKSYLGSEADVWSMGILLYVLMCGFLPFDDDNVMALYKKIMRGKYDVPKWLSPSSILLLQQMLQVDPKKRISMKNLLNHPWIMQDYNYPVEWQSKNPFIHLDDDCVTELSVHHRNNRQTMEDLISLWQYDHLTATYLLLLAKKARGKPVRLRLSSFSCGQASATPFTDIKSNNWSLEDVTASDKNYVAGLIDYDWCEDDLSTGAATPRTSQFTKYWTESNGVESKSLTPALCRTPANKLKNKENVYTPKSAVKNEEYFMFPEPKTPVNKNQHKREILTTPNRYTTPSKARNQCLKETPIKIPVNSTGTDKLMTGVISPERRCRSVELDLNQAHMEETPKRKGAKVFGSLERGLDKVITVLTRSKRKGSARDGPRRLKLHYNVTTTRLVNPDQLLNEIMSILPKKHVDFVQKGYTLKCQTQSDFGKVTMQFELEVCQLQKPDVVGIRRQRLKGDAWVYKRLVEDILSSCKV

## CC(=O)c1cnc2ccc(-c3cc(F)c(O)c(Cl)c3)cc2c1Nc1ccc(N2CCCC(N)C2)nc1 (stereo not drawn) [Example 733, 1-(4-(6-(3-aminopiperidin-1-yl)pyridin-3-ylamino)-6-(3-chloro-5-fluoro-4-hydroxyphenyl)quinolin-3-yl)ethanone]
HT-1197 cells; [5]
  IC50: 0.064 µM
DU4475 cells [1]
  IC50: 0.01 µM
MELK
  IC50: 0.00099 µM
T47D cells; 72 hours
  IC50: 0.0035 µM
22Rv1 cells [2]
  IC50: 0.0064 µM
A549 cells
  IC50: 0.0086 µM

## N[C@H]1CCCN(c2ccc(Nc3c(C(=O)C4CC4)cnc4ccc(-c5cc(Cl)c(O)c(Cl)c5)cc34)cn2)C1 [Example 647, (S)-(4-(6-(3-aminopiperidin-1-yl)pyridin-3-ylamino)-6-(3,5-dichloro-4-hydroxyphenyl)quinolin-3-yl)(cyclopropyl)methanone hydrochloride]
HT-1197 cells; [6]
  IC50: 0.75 µM
DU4475 cells [1]; hydrochloride
  IC50: 0.015 µM
MELK; hydrochloride
  IC50: 0.0015 µM
T47D cells; 72 hours, hydrochloride
  IC50: 0.03 µM
22Rv1 cells [2]
  IC50: 0.03 µM
A549 cells; hydrochloride
  IC50: 0.08 µM

## CCC(=O)c1cnc2ccc(-c3cc(Cl)c(O)c(Cl)c3)cc2c1N[C@H]1CC[C@H](CN(C)C)CC1 [Example 716, 1-(6-(3,5-dichloro-4-hydroxyphenyl)-4-((trans-4-((dimethylamino)methyl)cyclohexyl)amino)quinolin-3-yl)propan-1-one dihydrochloride]
HT-1197 cells; [7]
  IC50: 0.82 µM
DU4475 cells [1]; dihydrochloride
  IC50: 0.055 µM
MELK; dihydrochloride
  IC50: 0.0016 µM
T47D cells; 72 hours, dihydrochloride
  IC50: 0.14 µM
22Rv1 cells [2]
  IC50: 0.14 µM
A549 cells; dihydrochloride
  IC50: 0.12 µM

## O=C(c1cnc2ccc(-c3cc(F)c(O)c(Cl)c3)cc2c1N[C@H]1CC[C@H](CN2CCCC2)CC1)C1CC1 [Example 588, (6-(3-chloro-5-fluoro-4-hydroxyphenyl)-4-(1R,4R)-4-(pyrrolidin-1-ylmethyl)cyclohexylamino)quinolin-3-yl)(cyclopropyl)methanone hydrochloride]
HT-1197 cells; [8]
  IC50: 0.46 µM
MELK; hydrochloride
  IC50: 0.0037 µM
T47D cells; 72 hours, hydrochloride
  IC50: 0.091 µM
22Rv1 cells [3]
  IC50: 0.16 µM
A549 cells; hydrochloride
  IC50: 0.096 µM
DU4475 cells [4]; hydrochloride
  IC50: 0.063 µM

## CN1CCN(C[C@H]2CC[C@H](Nc3c(C(=O)C4CC4)cnc4ccc(-c5cc(Cl)c(O)c(Cl)c5)cc34)CC2)CC1 [Example 619, cyclopropyl(6-(3,5-dichloro-4-hydroxyphenyl)-4-(1R,4R)-4-((4-methylpiperazin-1-yl)methyl)cyclohexylamino)quinolin-3-yl)methanone hydrochloride]
HT-1197 cells; [8]
  IC50: 2.6 µM
T47D cells; 72 hours, hydrochloride
  IC50: 0.32 µM
22Rv1 cells [3]
  IC50: 0.51 µM
A549 cells; hydrochloride
  IC50: 0.28 µM
DU4475 cells [4]; hydrochloride
  IC50: 0.15 µM

## CN[C@H]1CC[C@H](Nc2c(C(C)=O)cnc3ccc(-c4cc(Cl)c(O)c(OC)c4)cc23)CC1 [Example 543, 1-(6-(3-chloro-4-hydroxy-5-methoxyphenyl)-4-(1R,4R)-4-(methylamino)cyclohexylamino)quinolin-3-yl)ethanone dihydrochloride]
HT-1197 cells; HT1197 cells (negative control), dihydrochloride
  IC50: 1.1 µM
MELK; dihydrochloride
  IC50: 0.0018 µM
T47D cells; 72 hours, dihydrochloride
  IC50: 0.047 µM
22Rv1 cells [3]
  IC50: 0.14 µM
A549 cells; dihydrochloride
  IC50: 0.076 µM
DU4475 cells [4]; dihydrochloride
  IC50: 0.051 µM

## CN(C)CCc1ccc(Nc2c(C(=O)C3CC3)cnc3ccc(-c4cc(Cl)c(O)c(Cl)c4)cc23)cc1 [Example 614, cyclopropyl(6-(3,5-dichloro-4-hydroxyphenyl)-4-(4-(2-(dimethylamino)ethyl)phenylamino)quinolin-3-yl)methanone hydrochloride]
HT-1197 cells; [8]
  IC50: 1.6 µM
MELK; hydrochloride
  IC50: 0.0016 µM
T47D cells; 72 hours, hydrochloride
  IC50: 0.12 µM
22Rv1 cells [3]
  IC50: 0.12 µM
DU4475 cells [4]; hydrochloride
  IC50: 0.024 µM

## CN(C)C1CCN(Cc2ccc(Nc3c(C(=O)C4CC4)cnc4ccc(-c5cc(Cl)c(O)c(Cl)c5)cc34)cc2)C1 (stereo not drawn) [Example 695, cyclopropyl(6-(3,5-dichloro-4-hydroxyphenyl)-4-(4-((3-(dimethylamino)pyrrolidin-1-yl)methyl)phenylamino)quinolin-3-yl)methanone hydrochloride]
HT-1197 cells; Homo sapiens, HT1197, 72 h, HT1197 cells (negative control, no MELK expression)
  IC50: 5.8 µM
DU4475 cells [1]; hydrochloride
  IC50: 0.1 µM
T47D cells; 72 hours, hydrochloride
  IC50: 0.26 µM
22Rv1 cells [2]
  IC50: 0.23 µM
A549 cells; hydrochloride
  IC50: 0.13 µM

## CC(C)(N)c1ccc(Nc2c(C(=O)C3CC3)cnc3ccc(-c4cc(Cl)c(O)c(Cl)c4)cc23)cc1 [Example 602, {4-[4-(2-Aminopropan-2-yl)phenylamino]-6-(3,5-dichloro-4-hydroxyphenyl)quinolin-3-yl}(cyclopropyl)methanone]
HT-1197 cells; HT1197 cells (negative control)
  IC50: 0.73 µM
MELK
  IC50: 0.0011 µM
T47D cells; 72 hours
  IC50: 0.13 µM
22Rv1 cells [3]
  IC50: 0.082 µM
A549 cells
  IC50: 0.074 µM
DU4475 cells [4]
  IC50: 0.038 µM

## CC(C)(N)c1ccc(Nc2c(C(=O)C3CC3)cnc3ccc(-c4cc(F)c(O)c(Cl)c4)cc23)cc1 [Example 604, {4-[4-(2-Aminopropan-2-yl)phenylamino]-6-(3-chloro-5-fluoro-4-hydroxyphenyl)quinolin-3-yl}(cyclopropyl)methanone]
HT-1197 cells; [9]
  IC50: 0.79 µM
MELK
  IC50: 0.0028 µM
T47D cells; Homo sapiens, T47D, 72 h
  IC50: 0.094 µM
22Rv1 cells [3]
  IC50: 0.087 µM
A549 cells; Homo sapiens, A549, 72 h
  IC50: 0.097 µM
DU4475 cells [4]; Homo sapiens, DU-4475, 72 h
  IC50: 0.039 µM

## O=C(c1cnc2ccc(-c3cc(Cl)c(O)c(Cl)c3)cc2c1N[C@H]1CC[C@H](CN2CCCC2)CC1)C1CC1 [Example 585, cyclopropyl(6-(3,5-dichloro-4-hydroxyphenyl)-4-(1R,4R)-4-(pyrrolidin-1-ylmethyl)cyclohexylamino)quinolin-3-yl)methanone hydrochloride]
HT-1197 cells; [8]
  IC50: 0.78 µM
T47D cells; 72 hours, hydrochloride
  IC50: 0.12 µM
22Rv1 cells [3]
  IC50: 0.1 µM
A549 cells; hydrochloride
  IC50: 0.073 µM
DU4475 cells [4]; hydrochloride
  IC50: 0.043 µM

## CN[C@H]1CC[C@H](Nc2c(C(=O)C3CC3)cnc3ccc(-c4cc(Cl)c(O)c(OC)c4)cc23)CC1 [Example 517, {6-(3-Chloro-4-hydroxy-5-methoxyphenyl)-4-[trans-4-(methylamino)cyclohexylamino]quinolin-3-yl}(cyclopropyl)methanone]
HT-1197 cells; [9]
  IC50: 0.38 µM
MELK
  IC50: 0.0014 µM
T47D cells; Homo sapiens, T47D, 72 h
  IC50: 0.067 µM
22Rv1 cells [3]
  IC50: 0.18 µM
A549 cells; Homo sapiens, A549, 72 h
  IC50: 0.072 µM
DU4475 cells [4]; Homo sapiens, DU-4475, 72 h
  IC50: 0.048 µM

## CC(=O)c1cnc2ccc(-c3cc(Cl)c(O)c(Cl)c3)cc2c1Nc1ccc(CN2CCN(C)CC2)cc1 [Example 655, 1-(6-(3,5-dichloro-4-hydroxyphenyl)-4-(4-((4-methylpiperazin-1-yl)methyl)phenylamino)quinolin-3-yl)ethanone hydrochloride]
HT-1197 cells; [6]
  IC50: 7.8 µM
DU4475 cells [1]; hydrochloride
  IC50: 0.097 µM
MELK; hydrochloride
  IC50: 0.0029 µM
T47D cells; 72 hours, hydrochloride
  IC50: 0.072 µM
22Rv1 cells [2]
  IC50: 0.18 µM
A549 cells; hydrochloride
  IC50: 0.23 µM

## CC(=O)c1cnc2ccc(-c3cc(Cl)c(O)c(Cl)c3)cc2c1N[C@H]1CC[C@H](CCN(C)C)CC1 [Example 740, 1-(6-(3,5-dichloro-4-hydroxyphenyl)-4-(trans-4-(2-(dimethylamino)ethyl)cyclohexylamino)quinolin-3-yl)ethanone hydrochloride]
HT-1197 cells; [6]
  IC50: 3.5 µM
DU4475 cells [1]; hydrochloride
  IC50: 0.087 µM
T47D cells; 72 hours, hydrochloride
  IC50: 0.099 µM
22Rv1 cells [2]
  IC50: 0.17 µM

## CC(=O)c1cnc2ccc(-c3cc(F)c(O)c(Cl)c3)cc2c1N[C@H]1CC[C@H](CCN(C)C)CC1 [Example 742, 1-(6-(3-chloro-5-fluoro-4-hydroxyphenyl)-4-(1R,4R)-4-(2-(dimethylamino)ethyl)cyclohexylamino)quinolin-3-yl)ethanone dihydrochloride]
HT-1197 cells; [7]
  IC50: 1.7 µM
DU4475 cells [1]; dihydrochloride
  IC50: 0.063 µM
MELK; dihydrochloride
  IC50: 0.0044 µM
T47D cells; 72 hours, dihydrochloride
  IC50: 0.034 µM
22Rv1 cells [2]
  IC50: 0.094 µM
A549 cells; dihydrochloride
  IC50: 0.078 µM

## CC(=O)c1cnc2ccc(-c3cc(F)c(O)c(Cl)c3)cc2c1Nc1ccc(N2CCN(C)CC2)nc1 [Example 488, 1-(6-(3-chloro-5-fluoro-4-hydroxyphenyl)-4-(6-(4-methylpiperazin-1-yl)pyridin-3-ylamino)quinolin-3-yl)ethanone]
22Rv1
  IC50: 0.38 µM
HT-1197 cells; [5]
  IC50: 2.1 µM
MELK
  IC50: 0.0041 µM
T47D cells; 72 hours
  IC50: 0.084 µM
A549 cells
  IC50: 0.2 µM
DU4475
  IC50: 0.14 µM
